By IC50 is commonly meant the concentration that gives 50% inhibition.

T1 sequence (Q9NZQ7 19-238): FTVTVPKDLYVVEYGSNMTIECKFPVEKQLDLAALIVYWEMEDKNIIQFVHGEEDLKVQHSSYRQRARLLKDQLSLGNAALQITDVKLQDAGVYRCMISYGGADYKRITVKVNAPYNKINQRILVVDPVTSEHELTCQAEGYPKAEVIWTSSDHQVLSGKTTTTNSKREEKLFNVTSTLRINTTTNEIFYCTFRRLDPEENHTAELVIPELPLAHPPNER

This experiment concerns the target T1, PD-1/PD-L1 (Homo sapiens, UniProt Q9NZQ7).
T1 construct: Recombinant human PD-L1 protein (19-238) with a His-tag at the C-terminus; purchased AcroBiosystems PD1-H5229 (PD-L1); PD1-H5257 (PD-1)
The experiment is described as follows: PD-1/PD-L1 homogenous time-resolved fluorescence (HTRF) binding assay. Conditions: recombinant human PD-L1 (19-238) His-tag / human PD-1 (25-167) Fc tag, class symbols. In a few lines: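 HTRF binding of human PD-1 (25-167, Fc-tagged) at 3 nM and PD-L1 (19-238, His-tagged) at 10 nM, preincubated 40 min with inhibitor in PBS pH 7.4, 0.05% Tween-20, 0.1% BSA, 1% DMSO, 25°C. Eu anti-IgG (1 nM) and anti-His-APC (20 nM) added, 60 min; 665/620 nm ratio; IC50 from curve fit.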
With `CC(=O)NCCNCc1cnc2c(Nc3cccc(-c4cccc(Nc5nccc6cc(CNCCNC(C)=O)cnc56)c4C)c3C)nccc2c1` [Example 152, N,N′-((((((2,2′-dimethyl-[1,1′-biphenyl]-3,3′-diyl)bis(azanediyl))bis(1,7-naphthyridine-8,3-diyl))bis(methylene))bis(azanediyl))bis(ethane-2,1-diyl))diacetamide], the IC50 is under 25 nM. `Cc1nc(C(=O)Nc2cccc(-c3cccc(NC(=O)c4nc(C)c(CN5CCCC[C@H]5C(=O)O)s4)c3C)c2C)sc1CN1CCCC[C@H]1C(=O)O` [Example 52, (2S,2'S)-1,1′-(2,2′-(2,2′-dimethylbiphenyl-3,3′-diyl)bis(azanediyl)bis(oxomethylene)bis(4-methylthiazole-5,2-diyl))bis(methylene)dipiperidine-2-carboxylic acid]: the 50% inhibitory concentration (IC50) is under 25 nM. The same measure for `CCOC(=O)CN1CCc2nc(C(=O)Nc3cccc(-c4cccc(NC(=O)c5ccc6c(n5)CCNC6)c4C)c3C)ccc2C1` [Example 170, ethyl 2-(2-((2,2′-dimethyl-3′-(5,6,7,8-tetrahydro-1,6-naphthyridine-2-carboxamido)-[1,1′-biphenyl]-3-yl)carbamoyl)-7,8-dihydro-1,6-naphthyridin-6(5H)-yl)acetate]: under 25 nM. `O=C(Nc1cccc(-c2cccc(NC(=O)c3nc4c(s3)CN(CCO)CC4)c2Cl)c1Cl)c1nc2c(s1)CN(CCO)CC2` [Example 91, N,N′-(2,2′-dichloro-[1,1′-biphenyl]-3,3′-diyl)bis(5-(2-hydroxyethyl)-4,5,6,7-tetrahydrothiazolo[5,4-c]pyridine-2-carboxamide)]: the IC50 is under 25 nM.

In the case of `Cc1c(Nc2nccc3cc(CNCC(=O)O)cnc23)cccc1-c1cccc(Nc2nccc3cc(CNC[C@@H](O)CC(=O)O)cnc23)c1C` [Example 141, (S)-4-(((8-((3′-((3-(((carboxymethyl)amino)methyl)-1,7-naphthyridin-8-yl)amino)-2,2′-dimethyl-[1,1′-biphenyl]-3-yl)amino)-1,7-naphthyridin-3-yl)methyl)amino)-3-hydroxybutanoic acid], the concentration for half-maximal inhibition (IC50) was under 25 nM. As to `Cc1c(NC(=O)c2nc3c(s2)CNCCC3)cccc1-c1cccc(NC(=O)c2nc3c(s2)CNCCC3)c1C` [Example 30, N,N′-(2,2′-dimethyl-[1,1′-biphenyl]-3,3′-diyl)bis(5,6,7,8-tetrahydro-4H-thiazolo[5,4-c]azepine-2-carboxamide)], the IC50 is under 25 nM.

On to `COC(=O)NCCN1CCc2nc(C(=O)N3CCc4c(-c5cccc6c5CCN6C(=O)c5nc6c(s5)CN(CCNC(=O)OC)CC6)cccc43)sc2C1` [Example 130, dimethyl ((([4,4′-biindoline]-1,1′-dicarbonyl)bis(6,7-dihydrothiazolo[5,4-c]pyridine-2,5(4H)-diyl))bis(ethane-2,1-diyl))dicarbamate], for which the IC50 is under 25 nM. Then `Cc1c(NC(=O)c2cn3c(n2)CNCC3)cccc1-c1cccc(NC(=O)c2cc3c(s2)CNCC3)c1C` [Example 42, N-(2,2′-dimethyl-3′-(5,6,7,8-tetrahydroimidazo[1,2-a]pyrazine-2-carboxamido)-[1,1′-biphenyl]-3-yl)-4,5,6,7-tetrahydrothieno[2,3-c]pyridine-2-carboxamide], with under 25 nM. Then `O=C(O)CN1CCc2nc(C(=O)Nc3cccc(-c4cccc(NC(=O)c5nc6c(s5)CN(CC(=O)O)CC6)c4Cl)c3Cl)sc2C1` [Example 65, 2,2′-((((2,2′-dichloro-[1,1′-biphenyl]-3,3′-diyl)bis(azanediyl))bis(carbonyl))bis(6,7-dihydrothiazolo[5,4-c]pyridine-2,5(4H)-diyl))diacetic acid], with under 25 nM; and `O=C(c1nc2c(s1)CN(CC(F)(F)F)CC2)N1CCc2c(-c3cccc4c3CCN4C(=O)c3nc4c(s3)CN(CC(F)(F)F)CC4)cccc21` [Example 84, [4,4′-biindoline]-1,1′-diylbis((5-(2,2,2-trifluoroethyl)-4,5,6,7-tetrahydrothiazolo[5,4-c]pyridin-2-yl)methanone)], with 25 to 100 nM; and `O=C(Nc1cccc(-c2cccc(NC(=O)c3ncc(CN4C[C@H](O)C[C@H]4C(=O)O)s3)c2Cl)c1Cl)c1ncc(CN2C[C@H](O)C[C@H]2C(=O)O)s1` [Example 67, (2S,2'S,4R,4′R)-1,1′-(((((2,2′-dichloro-[1,1′-biphenyl]-3,3′-diyl)bis(azanediyl))bis(carbonyl))bis(thiazole-2,5-diyl))bis(methylene))bis(4-hydroxypyrrolidine-2-carboxylic acid)], with under 25 nM.

Turning to `NC(=O)CN1CCc2nc(C(=O)N3CCc4c(-c5cccc6c5CCN6C(=O)c5nc6c(s5)CN(CC(N)=O)CC6)cccc43)sc2C1` [Example 104, 2,2′-(([4,4′-biindoline]-1,1′-dicarbonyl)bis(6,7-dihydrothiazolo[5,4-c]pyridine-2,5(4H)-diyl))diacetamide], the IC50 was under 25 nM. The same measure for `Cc1c(Nc2nccc3cc(CNCCO)cnc23)cccc1-c1cccc(Nc2nccc3cc(NCCO)cnc23)c1C` [Example 6, 2-(((8-((3′-((3-((2-hydroxyethyl)amino)-1,7-naphthyridin-8-yl)amino)-2,2′-dimethyl-[1,1′-biphenyl]-3-yl)amino)-1,7-naphthyridin-3-yl)methyl)amino)ethan-1-ol]: under 25 nM; for `Cc1c(NC(=O)c2nnc(C3CCCN3)o2)cccc1-c1cccc(NC(=O)c2nnc(C3CCCN3)o2)c1C` (stereo not shown) [Example 41, N,N′-(2,2′-dimethyl-[1,1′-biphenyl]-3,3′-diyl)bis(5-(pyrrolidin-2-yl)-1,3,4-oxadiazole-2-carboxamide)]: under 25 nM.

Take `Cc1nc(C(=O)N2CCc3c(-c4cccc(NC(=O)c5ncc(CN(C)CCO)s5)c4)cccc32)sc1CN(C)C` [Example 114, N-(3-(1-(5-((dimethylamino)methyl)-4-methylthiazole-2-carbonyl)indolin-4-yl)phenyl)-5-(((2-hydroxyethyl)(methyl)amino)methyl)thiazole-2-carboxamide]: the IC50 was under 25 nM. The same measure for `Cc1c(-c2cccc(N(C)Cc3nc4c(s3)CNCC4)c2C)cccc1N(C)Cc1nc2c(s1)CNCC2` [Example 24, N3,N3′,2,2′-tetramethyl-N3,N3′-bis((4,5,6,7-tetrahydrothiazolo[5,4-c]pyridin-2-yl)methyl)-[1,1′-biphenyl]-3,3′-diamine]: 100 to 200 nM; for `Cc1c(Nc2nccc3cc(CNCC(N)=O)cnc23)cccc1-c1cccc(Nc2nccc3cc(CNCC(N)=O)cnc23)c1C` [Example 144, 2,2′-(((((2,2′-dimethyl-[1,1′-biphenyl]-3,3′-diyl)bis(azanediyl))bis(1,7-naphthyridine-8,3-diyl))bis(methylene))bis(azanediyl))diacetamide]: under 25 nM. Turning to `Cc1c(NC(=O)c2nnc(CN)o2)cccc1-c1cccc(NC(=O)c2nnc(CN)o2)c1C` [Example 18, N,N′-(2,2′-dimethyl-[1,1′-biphenyl]-3,3′-diyl)bis(5-(aminomethyl)-1,3,4-oxadiazole-2-carboxamide)], the IC50 lay within 25 to 100 nM. The same measure for `O=C(Nc1cccc(-c2cccc(Nc3nccc4cc(CNCCO)cnc34)c2Cl)c1Cl)c1ncc(CNCCO)s1` [Example 98, N-(2,2′-dichloro-3′-((3-(((2-hydroxyethyl)amino)methyl)-1,7-naphthyridin-8-yl)amino)-[1,1′-biphenyl]-3-yl)-5-(((2-hydroxyethyl)amino)methyl)thiazole-2-carboxamide]: under 25 nM.

These data come from patent US20210040118A1, “IMMUNOMODULATORS, COMPOSITIONS AND METHODS THEREOF” (BETTA PHARMACEUTICALS CO., LTD, priority 2018, published 2021).
